Measured values as given in a melting point compilation (Tetko et al.; mined from patent text by program, amines drawn as free bases though some values may be those of a salt).

Row | SMILES | melting point
1 | CCCCc1cccc(=O)n1Cc1ccc(-c2ccccc2-c2nnn[nH]2)cc1 | 105 °C
2 | CC12CCC(O)CC1=CCC1C2CCC2(C)C(n3cccn3)=CCC12 (stereo unspecified) | 197 to 199 °C
3 | O=C1NC(=O)C(CC#Cc2ccc(Cl)cc2)(Sc2nc3cc(Cl)ccc3s2)S1 (stereo unspecified) | 187 to 188 °C
4 | Cc1nc2cc(NC(=O)NC34CC5CC(CC(C5)C3)C4)ccc2s1 | 209 to 214 °C
5 | CCOC(=O)c1c(OCc2ccccc2)cc(C(F)(F)F)nc1C(F)(F)F | 56 to 58.5 °C
6 | N#Cc1cccc2c(Cl)ccc([N+](=O)[O-])c12 | 210 to 212 °C
7 | COC(=O)CC(O)C(O)CC(=O)OC (stereo unspecified) | 80 to 81 °C
8 | CCOC(=O)C(NC(=O)CI)C(=O)OCC | 95 to 97 °C
9 | CC1OC(Cn2cncn2)(c2ccc(Cl)cc2Cl)OC1C (single isomer, unassigned; (-)) | 82.5 °C
10 | O=C(c1cccnc1)n1nc(-c2ccc(Br)cc2)cc1C(F)(F)F | 150 to 152 °C
11 | CSc1nc(=O)cc(N)n1-c1ccc(Br)cc1 | 138 to 140 °C
12 | Nc1c2c(nc3cc(F)ccc13)CCCC2O (stereo unspecified) | 203 to 206 °C
13 | Cc1cc(C)c(C#N)c(-c2ccc(F)c(C)c2)c1 | 98 to 100 °C
14 | Cc1cc(C(O)(C(F)(F)F)C(F)(F)F)cc(C)c1NCCN(C)C | 112 to 115 °C
15 | CC(C)(C)OC(=O)c1cc(Br)cc([N+](=O)[O-])c1 | 77 to 78 °C
16 | CCOC(=O)c1ncn2c1CNc1ccccc1-2 | 248 to 250 °C
17 | COC(=O)CCc1cc2ccc(C(F)(F)F)cc2[nH]1 | 108 to 110 °C
18 | CCOC(=O)c1c(CC)ncnc1NCCc1ccc(CCO)cc1 | 68 to 71 °C
19 | CCc1cc(C=C(C#N)C#N)ccc1N=C1SCC2(CCCC2)N1C1CCCC1 | 135 to 136 °C
20 | Nc1ncnc2c1c(-c1ccc(Oc3ccccc3)cc1)cn2C1CCOC1 (stereo unspecified) | 165 to 166 °C
21 | CC(=O)Nc1cc2c(cc1[N+](=O)[O-])C(CC(C)C)C(=O)N2 (stereo unspecified) | 192 to 197 °C
22 | CC(=S)NCC1CN(c2ccc(S(=O)CCF)c(F)c2)C(=O)O1 (stereo unspecified) | 161 °C

Row | SMILES | melting point
23 | O=C1C(c2c[nH]c3ccccc23)C(c2c[nH]c3ccccc23)C(=O)N1c1ccccc1 (stereo unspecified) | 260 to 263 °C
24 | CCCCOc1c(CO)n(CC(C)(C)C)c(=O)c2ccc(OCC)cc12 | 92.5 to 93 °C
25 | CN1CC(CCCl)Oc2ccc(Br)cc2C1=S (stereo unspecified) | 118 to 120 °C
26 | O=C(CBr)Nc1c(C(F)(F)F)cc(OCc2ccccc2)cc1C(F)(F)F | 173 to 175 °C
27 | CCn1nc2ccc(Cl)nn2c1=O | 150 to 152 °C
28 | O=C(CCCN1CC=C(c2noc(C3CC3)n2)CC1)c1ccc(F)cc1 | 67 to 68 °C
29 | COC(=O)c1cn(-c2ccc(C3=NOC(NC(C)=O)C3)cc2F)nn1 (stereo unspecified) | 221 °C
30 | CCCSc1cc2c(c3c1OC(C)(C)C3)C(c1cccc(C(=O)OCC)c1)=NC(C)(C)C2 | 83 to 84 °C
31 | NC(=O)c1c(C(F)(F)F)oc2cc(O)ccc2c1=O | > 310 °C
32 | O=c1c(Cl)c(Cl)cnn1C1OCCCC1Cl (stereo unspecified) | 109 to 110 °C
33 | COc1ccc(CCNC(=O)CC(NC(=O)CCNC(=O)c2ccc(C(=N)N)cc2)C(=O)O)cc1 (stereo unspecified) | 217 °C
34 | CN(C)C=Cc1cc(-n2cncn2)ncc1[N+](=O)[O-] | 225 to 228 °C
35 | NS(=O)(=O)Nc1cccc(-c2cccc(-c3nc(-c4ccc(C(F)(F)F)cc4)cc(C(F)(F)F)n3)c2)c1 | 174 °C
36 | N#Cc1cnn2c1NCC=C2c1ccc(Cl)cc1 | 208 to 209 °C
37 | CC(=O)ON1C(C)(C)CC(OC(=O)c2ccccc2)CC1(C)C | 110 to 112 °C
38 | Cc1c(-c2ccc(C(F)(F)F)cc2)n(Cc2ccc(OCCN3CCCCC3)cc2)c2ccc(O)cc12 | 174 °C
39 | CCOC(=S)c1cnc(C)nc1N | 130 to 131 °C
40 | Cn1c(C(F)(F)F)c(I)c(=O)n(C)c1=O | 149 to 151 °C
41 | O=C1CC(=O)N(c2ccccc2)c2ccccc2N1NCCC1C2CC3CC(C2)CC1C3 (stereo unspecified) | 196 to 197 °C
42 | CCS(=O)(=O)c1ccc(SC2SCC(OC(C)=O)C(OC(C)=O)C2OC(C)=O)cc1 (stereo unspecified) | 136 to 137 °C
43 | C=C(C)C(=O)NC(C)C | 89 °C
44 | CON(Cc1ccc(F)c(C)c1)C(=O)C1=C(O)C(=O)N(C)C1 | 160 to 164 °C

Row | SMILES | melting point
45 | CC(=O)Nc1ccc2c(c1)COCO2 | 133 to 134 °C
46 | CCSCCc1c(-c2ccccc2)nc(N)n2ncnc12 | 120 to 122 °C
47 | CCOC(=O)c1ncn2c1[C@@H]1CCCN1C(=O)c1c(Cl)cccc1-2 | 182 to 184 °C
48 | O=C(Nc1ccc(C(F)(F)F)cc1)Nc1cccc(C(=O)N2CCOCC2)n1 | 208 to 210 °C
49 | CCCCCCOc1ccc2c(c1CCC)OC(CCC(=O)O)(CCC(=O)O)CC2=O | 164 to 165 °C
50 | COc1cc(C(=O)Cl)ccc1OCCCCl | 60 to 63 °C
51 | CCCCCCCCCCCC(CC(=O)NC(CCCNC(=O)OCc1ccccc1)COC1CCCCO1)OCc1ccccc1 (stereo unspecified) | 84 to 86 °C
52 | CCCCc1c(OCOC(=O)C(C)(C)C)n(-c2ccccc2)n(-c2ccccc2)c1=O | 83 to 85 °C
53 | O=C(O)c1cccc([N+](=O)[O-])c1SCCO | 91 to 93 °C
54 | Cc1nc(N2CCOCC2)c2n1-c1ccc(Cl)cc1C(c1ccccc1F)=NC2 | 172 to 174 °C
55 | CCCCOc1cc(/C=C(\OCC)C(=O)O)ccc1CCCc1ccc(OC)cc1 | 65 °C
56 | O=C(O)CCCN(C(=O)c1ccc(Cl)cc1)c1cccc2ccccc12 | 173 to 174 °C
57 | N#Cc1cc(-c2ccoc2)c2ccc(COc3cc(F)cc(-c4cc(F)cc(F)c4)c3)cc2n1 | 189 to 192 °C
58 | Cc1c(NC(=O)OC(C)(C)C)cc2c(c1C)OC(C)(C)C2=O | 154 to 155 °C
59 | CC(C)=CCOc1ccc(C(=O)C=Cc2ccc(C(C)(C)C)cc2)c(OCC(=O)O)c1 | 136 to 139 °C
60 | CC(C)(C)c1ncncc1C(=O)c1ccc(Cl)cc1 | 75 to 77 °C
61 | O=C(O)Cc1ccc(OCc2cc(Cl)ccc2C(=O)O)cc1 | 197 to 201 °C
62 | CCOC(=O)CN(Cc1cc(-n2cc(C)nc2C)ccc1[N+](=O)[O-])C(=O)C(F)(F)F | 172 to 176 °C
63 | Cc1cc(Oc2c(Cl)cc(C(F)(F)F)cc2Cl)nn1C(=O)NOC(C)(C)C | 92 to 94 °C
64 | CCOC(=O)C1=C(C)NC(C)=C(C(=O)OCC)C1c1ccccc1S(C)=O (stereo unspecified) | 232 to 233 °C

The remaining lines, values ahead:

Row | melting point | SMILES
65 | 136 to 138 °C | COc1c(CN2CCC(=O)C(C(c3ccccc3)c3ccccc3)C2)cc(C(C)(C)C)cc1C(C)(C)C (stereo unspecified)
66 | 89 to 91 °C | Nc1sc2c(c1C(=O)c1ccccc1)CCN(CCc1ccc([N+](=O)[O-])cc1)C2
67 | 72 to 75 °C | CCOc1cc(OC)cc(OP(=O)(O)O)c1C(=O)C=Cc1ccc(OC)cc1
68 | 194 to 196 °C | Nc1ccccc1NC(=O)CCN1CCN(c2cccc(C(F)(F)F)c2)CC1
69 | 172 °C | Cc1cnc(NC(=O)c2cc(Oc3ccc(C(=O)N4CCC4)cc3F)cc(O[C@@H](C)CO)c2)cn1
70 | > 250 °C | NCc1ccn(C2=CC3=C(CC2)CCc2[nH]c(=O)c(=O)n(CC(=O)O)c23)c1
71 | 174 to 175 °C | CC(C)(C)c1ccc(C(=O)n2c3c(c4ccccc42)CC(C(=O)O)CC3)cc1 (stereo unspecified)
72 | 155 to 160 °C | CCCCCCC(C(=O)N1CC(O)CC1C(=O)O)n1cnc2cc(-c3ccccc3-c3nn[nH]n3)ccc21 (stereo unspecified)
73 | 268 to 270 °C | Nc1ccc2c(=O)n3c(nc2c1)C(=Cc1ccccc1)CC3
74 | 88 °C | CN1C(=O)C(C2=COc3ccccc3O2)=C(c2cn(C(=O)OC(C)(C)C)c3cc(OCc4ccccc4)ccc23)C1=O
75 | 169 to 171 °C | COc1cc(-n2nc(C#N)cc2-c2ccc(S(C)(=O)=O)cc2)ccc1F
76 | 195 to 197 °C | O=C1N(Cc2ccccn2)c2cccc(-c3ccoc3)c2C12COc1cc3c(cc12)CCO3 (stereo unspecified)
77 | 70 to 84 °C | COc1cc2c(cc1Nc1ncc(Cl)c(Nc3ccccc3S(=O)(=O)N3CCC(O)C3)n1)CCN(CC(=O)N(C)C)CC2 (stereo unspecified)
78 | 80 to 82 °C | COc1ccc(Nc2nc(NC3CCCCCC3)nc(Oc3ccc(I)cc3)n2)cc1Cl
79 | 116 °C | O=C(NCCc1cncn1Cc1ccc(Cl)cc1)[C@H]1CN(Cc2ccccc2)CCN1C(=O)NC1CCCCC1
80 | 175 to 177 °C | COc1cc(C)nc(NC(=O)NS(=O)(=O)c2cccc3c2NC(C)C3)n1 (stereo unspecified)

Row | melting point | SMILES
81 | 144 to 146 °C | COc1ccc(CN(C)CCCc2ccc(NC(=O)c3cccc4c(=O)c5cccc(OC)c5sc34)cc2)cc1OC
82 | 165 to 167 °C | COC(=O)c1ccc2oc(CCc3cc4cc(C(=O)OC)ccc4o3)cc2c1
83 | 140 °C | COc1ccc(CN(C)CCCSc2ccc(NC(=O)c3cccc4c(=O)c5ccccc5[nH]c34)cc2)cc1OC
84 | 180 to 183 °C | Cc1ccncc1C(O)c1ccc2cc(C(=O)OC(C)C)ccc2c1 (stereo unspecified)
85 | 201 to 203 °C | CS(=O)(=O)N1CC2(CCN(C(=O)Nc3cnc(-c4ccccc4)cn3)CC2)c2ccccc21
86 | 57 to 59 °C | COC1=C(OC)C(=O)C2=C(CCC(CCOc3ccc(CO)cc3)CC2)C1=O
87 | 177 to 179 °C | O=C1[C@H]2CCC[C@H]2N(C(=O)CBr)c2ccccc2N1Cc1ccccc1 (relative stereo)
88 | > 200 °C | CN(C)CCCCCCNC(=O)c1ccc(-c2cnc3c(c2)N(Cc2ccccc2)C(=O)CN3)cc1
89 | 149 to 151 °C | CNc1nc(-c2cccc(NC(=O)c3ccc(N(C)C)nc3)c2)c2cc(OC)c(OC)cc2n1
90 | 139 to 140 °C | COc1ccc(-n2nc(OC(C)C)cc2-c2ccc(OCCNC(N)=O)cc2)cc1
91 | 135 to 136 °C | CCCCn1c(=O)c2c(ncn2S(=O)(=O)c2cccc3ccccc23)n(CCCC)c1=O
92 | 98 °C | CC1(C)C=C(c2ccccn2)c2cc(Cl)c(Cl)cc2OC1
93 | 130 °C | CCOC(=O)c1c(N2CCN(C(=O)c3cccs3)CC2)c2cc(F)cnc2n(Cc2ccccc2)c1=O
94 | 133 °C | COC(=O)c1nn(-c2ccc(Cl)cc2Cl)c(-c2ccc(Cl)cc2)c1C
95 | 214 to 216 °C | CN(C)C(=O)c1cc(C(=O)O)c2cc(Cc3ccc(F)cc3)cnc2c1O
96 | 215 to 216 °C | COc1ccc(-c2sc3c(c2C)c(=O)c(C#N)cn3Cc2ccccc2F)cc1
